Results reported in EP2465840A1, “Terpene ether” (CABB GmbH, priority 2010, dated 2012).

Key:
Dynamic surface tension = assay type: physicochemical
Excerpt: (§1) Die Eigenschaften von mehreren erfindungsgemäßen Terpenethern werden in Tabelle 19 zusammengefasst und mit denen anderen Terpenethern verglichen. Tabelle 19

[1] = Foam height of terpene ether at t=0; assay type: physicochemical
Excerpt: as §1

Row | Compound | Dynamische Oberflächenspannung Blasenfrequenz 1 Hz (Dynamic surface tension) [mN/m] | Dynamische Oberflächenspannung Blasenfrequenz 3 Hz (Dynamic surface tension) [mN/m] | Schaumhöhe t=0 [1] [mm]
1 | CC1(C)C2CCC1(C)C(OCCOC1CC3CCC1(C)C3(C)C)C2 (stereo not drawn) [NP 23, Ethylenglykol-diisobornylether] | 66 | 68 | 6
2 | CC1(C)C2CCC1(C)C(OCCOCCOCCO)C2 (stereo not drawn) [NP 6, Triethylenglykol-isobornylether] | 43 | 45 | 0
3 | Dipropylenglykol-düsobornylether [NP 22] | 64 | 68 | 0
4 | Milchsäure-isobornylether [NP 14] | 45 | 47 | 0
5 | S-(-)-Milchsäuremethylester-isobornylether [NP2] | 65 | 67 | 0
6 | CC(=O)OCC(COC1CC2CCC1(C)C2(C)C)OC(C)=O (stereo not drawn) [NP7, Diacetin-isobornytether] | 52 | 57 | 0
7 | Tripropylenglykol-isobornylether [NP 3] | 45 | 63 | 0
